“Also recorded” adds a separate entry of the source.
What was measured:
[1] = test system: p53-RE (p53C#18) in wild type mouse embryonic fibroblasts; test: p53 response element luciferase assay with cisplatin; assay type: cell-based; conditions: wild type MEF; increasing concentrations at the time of transfection
Description: FIG. 12. Treatment with cisplatin enhances activity of p53-RE in cells with wild type p53. Wild type and p53−/− mouse embryonic fibroblasts (MEF) were transfected with p53C#18 as described above. Increasing concentrations of cisplatin were added at the time of transfection. Luciferase assay was performed 36-48 hours later and transfection efficiency was normalized.
To determine whether treatment with cisplatin (which increases steady-state level of p53 protein) can enhance activity of the p53-RE in normal cells, wild type and p53−/− mouse embryonic fibroblasts were treated with increasing concentrations of cisplatin at the time of transfection (FIG. 12).

mouse model = conditions: 100 mg/kg, intra-peritoneal; cited from earlier work
CAMA-1 cells = test: MTS cytotoxicity assay; assay type: cell-based, Human; conditions: increasing concentrations of recombinant TRAIL, 48 hours
Description: (§1) MTS cytotoxicity assay. Cells were plated 2×10^4 per well in triplicate wells and incubated overnight. […] Cytotoxicity was assessed using a CellTiter 96 Non-Radioactive Cell Proliferation Assay and medium background was subtracted. Results are presented as percent of HBSS-treated control.

MDA-MB-231 cells = test: MTS cytotoxicity assay; assay type: cell-based, Human; conditions: increasing concentrations of recombinant TRAIL, 48 hours
Description: as §1

HCC 1937 cells [2] = test: MTS cytotoxicity assay; assay type: cell-based, Human
Description: (§2) MTS cytotoxicity assay. Cells were plated 2×10^4 per well in triplicate wells and incubated overnight. Serial dilutions of soluble TRAIL in Hank's balanced salt solution (HBSS) were added to the wells and cells were incubated for an additional 36 hours. Cytotoxicity was assessed using a CellTiter 96 Non-Radioactive Cell Proliferation Assay and medium background was subtracted. Results are presented as percent of HBSS-treated control.

MCF-7 cells [3] = test: MTS cytotoxicity assay; assay type: cell-based, Human
Description: as §2

HCC 1937 cells [4] = test: Annexin V determination by flow cytometry; assay type: cell-based, Human; conditions: 100 ng of TRAIL for 36 hours
Description: (§3) Annexin V determination. 1×10^6 cells were plated per 60 mm dish and cultured overnight. Cells were than left untreated or treated with soluble TRAIL (100 ng/ml) and incubated for additional 36 hours. Cells were than trypsinized and washed with 1× Binding Buffer. For each condition, half of the cell suspension was left untreated and another half was incubated for 15 minutes at room temperature in the dark with Annexin V. Immediately after staining, cells were analyzed by flow cytometry.

MCF-7 cells [5] = test: Annexin V determination by flow cytometry; assay type: cell-based, Human; conditions: 100 ng of TRAIL for 36 hours
Description: as §3

## N.N.[Cl][Pt][Cl] [Cisplatin, cisplatin]
[1]
  effect on activity of p53-RE (in words): enhanced activity of p53C#18 in cells with wild type p53 in a dose-dependent manner

## CCc1c2c(nc3ccc(OC(=O)N4CCC(N5CCCCC5)CC4)cc13)-c1cc3c(c(=O)n1C2)COC(=O)[C@]3(O)CC [irinotecan]
Mouse model
  drug-related toxicity (in words): without drug-related toxicity
  survival in a mouse model (in words): prolong survival

## TRAIL: soluble TRAIL, residues 114-281 of the soluble domain of human TRAIL, expressed in E. coli (BIOMOL)
CAMA-1 cells
  cell viability by MTS (in words): significant TRAIL-dependent reduction of viability
MDA-MB-231 cells
  cell viability by MTS (in words): significant TRAIL-dependent reduction of viability; also recorded: biphasic effect
HCC 1937 cells [2]
  sensitivity to TRAIL-induced apoptosis by MTS (in words): completely resistant
MCF-7 cells [3]
  sensitivity to TRAIL-induced apoptosis by MTS (in words): completely resistant
HCC 1937 cells [4]
  increase in Annexin V staining: approximately 17%
MCF-7 cells [5]
  increase in Annexin V staining: approximately 17%

From US20080108582A1, “Methods And Compositions For Combinatorial Approaches To Cancer Gene Therapy” (priority 2003, published 2008)
